Measurements taken from patent US6307056A, “4-aryloxindoles” (Hoffman-La Roche Inc., priority 1999, dated 2001).
Structures can show the parent of a compound that is named as a salt.

Legend:
[1] = biological target: rat SAPK (isoform b) (Rattus norvegicus, UniProt P49187); test: SAPK FlashPlate Assay (c-Jun phosphorylation); type: biochemical; conditions: purified rat SAPK activated by MEKK-1/MKK4, GST-c-Jun substrate, 33P-ATP, 30 minutes at 37° C.
Procedure: "IC50 " refers to the concentration of a particular 4-aryloxindole or 4-heteroaryloxidole required to inhibit 50% of the SAPK protein kinase catalytic activity. IC50 can be measured, inter alia, using the assay described herein in Example 66.
Human JNK is highly homologous to rat SAPK. To measure the inhibitory activity of test compounds, the compounds were tested in the rat SAPK assay.
For the SAPK assay, purified GST-c-Jun (a chimeric protein containing c-Jun, a natural substrate of JNK) was coated on 96 well FlashPlates (New England Nuclear, Boston, Mass.). Purified rat SAPK (isoform b, Kyriakis et al. supra) was preincubated with preparations containing MEKK-1 and MKK4 for 30 minutes at 37° C. in assay buffer containing 25 mM HEPES, pH 7.5, 150 mM NaCl, 20 mM MgCl2, 2 mM DTT, 0.001% Tween 20, 1 mM ATP freshly added. In the preincubation step, MEKK-1 phosphorylates and activates MKK4, which in turn phosphorylates and activates SAPK. The activated SAPK was then added to the c-Jun coated FlashPlates along with ^33 P-ATP ([…] per reaction) and test compounds. The plates were incubated for 30 minutes at 37° C., then washed with PBS, 0.01% Tween 20, and counted in the Topcount scintillation counter (Packard Instrument Co., Downers Grove, Ill.). Dilutions of compounds were tested in duplicate in each assay. The percent inhibition of c-Jun phosphorylation (a measure of inhibition of SAPK activity) was determined by the following formula: [formula]
where "test compound" refers to the average counts per minute of the test duplicates, "nonspecific" refers to the average counts per minute when no SAPK was added, and "total" refers to the average counts per minute when no compound was added.

[2] = test system: TNF-α; test: U937 Cell-Based Assay, TNF-α ELISA after LPS stimulation; conditions: Homo sapiens, U-937, read-out: IC50 in U837 Cells TNF, PMA-differentiated U937 cells, 1 hour preincubation, 24 hours, supernatant ELISA
Procedure: (§1) U937 Cell-Based Assay The U937 cells, a human monocyte/macrophage cell line, was obtained from the ATTC and grown in the recommended medium. These cells when stimulated with lipopolysaccharide (LPS) release TNF, another inflammatory mediator implicated in the JNK pathway ([…] et al., supra) and IL-6. In this assay the ability of a test compound to block TNF expression is evaluated. The U937 cells were suspension cells which when stimulated with phorbol myristate acetate (PMA) (Sigma, St. Louis, Mo.) became adherent. After PMA stimulation the cells were washed in cell culture medium and plated at 1×10^5 cells/well in 96 well plates. The following day the test compounds and dexamethasone control (Sigma, St. Louis, Mo.) were added to the cells for 1 hour of preincubation. Then the cells were stimulated with LPS (Sigma, St. Louis, Mo.). After an additional 24 hours of incubation the supernatants were removed and assayed for TNF-α and IL-6 by ELISA. The IL-6 ELISA was run as described previously for the MG63 assay. […] The intensity of the color (measured at 450 nm) is proportional to the amount of TNF-α or IL-6 produced by the U937 cells upon exposure to LPS and the test compounds. […] IC50 values for each test compound were determined from the linear regression of a plot of the logarithm of the concentration of compound versus amount of TNF-α or IL-6 secreted. […]

[3] = test system: IL-6; test: U937 Cell-Based Assay, IL-6 ELISA after LPS stimulation; conditions: Homo sapiens, U-937, PMA-differentiated U937 cells, 1 hour preincubation, 24 hours, supernatant ELISA, read-out: IC50 (pM) in U837 Cells IL6
Procedure: as §1

Sequence of rat SAPK (isoform b) (P49187 whole entry, canonical isoform): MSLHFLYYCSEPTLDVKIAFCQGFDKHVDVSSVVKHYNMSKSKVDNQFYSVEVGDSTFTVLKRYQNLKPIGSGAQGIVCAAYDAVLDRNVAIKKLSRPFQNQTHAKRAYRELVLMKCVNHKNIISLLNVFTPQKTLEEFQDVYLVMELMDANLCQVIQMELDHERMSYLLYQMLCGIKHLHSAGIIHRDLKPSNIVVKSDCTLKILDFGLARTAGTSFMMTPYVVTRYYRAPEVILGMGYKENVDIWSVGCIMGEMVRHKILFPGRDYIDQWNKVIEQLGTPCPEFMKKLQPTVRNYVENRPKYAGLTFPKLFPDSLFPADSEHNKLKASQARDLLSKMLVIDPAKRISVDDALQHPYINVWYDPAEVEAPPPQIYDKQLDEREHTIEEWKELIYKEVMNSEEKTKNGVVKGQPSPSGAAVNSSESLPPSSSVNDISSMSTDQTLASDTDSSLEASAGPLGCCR

`Nc1cccc(-c2cccc3c2/C(=C/c2ccc[nH]2)C(=O)N3)c1` [Compound C, (Z)-4-(3-Aminophenyl)-1,3-dihydro-3-[(1H-pyrrol-2-yl)methylene]-2H-indol-2-one] was tested, and the IC50 [1] was under 0.15 µM.

For `Nc1cccc(-c2cccc3c2/C(=C/c2ccc[nH]2)C(=O)N3)c1` [D, (Z)-4-(3-Aminophenyl)-1,3-dihydro-3-[(1H-pyrrol-2-yl)methylene]-2H-indol-2-one hydrochloride salt], the IC50 [2] was 1.17e+06 pM and the IC50 [3] was 6.33e+06 pM.

Work on `COc1cc[nH]c1/C=C1\C(=O)Nc2cccc(-c3cccc(N)c3)c21` [EE, (Z)-4-(3-Aminophenyl)-1,3-dihydro-3-[(3-methoxy-1H-pyrrol-2-yl)methylene]-2H-indol-2-one] yielded an IC50 [1] of under 0.15 µM.

Work on `COc1cc[nH]c1/C=C1\C(=O)Nc2cccc(-c3ccccc3)c21` [GG, (Z)-1,3-Dihydro-4-phenyl-3-[(3-methoxy-1H-pyrrol-2-yl)methylene]-2H-indol-2-one] yielded an IC50 [1] of under 0.15 µM.

In the case of `COc1cc[nH]c1/C=C1\C(=O)Nc2ccc([N+](=O)[O-])c(-c3ccc(O)cc3)c21` [JJ, (Z)-1,3-Dihydro-4-(4-hydroxyphenyl)-3-[(3-methoxy-1H-pyrrol-2-yl)methylene]-5-nitro-2H-indol-2-one], the IC50 [1] is reported as under 0.15 µM.

`COc1cc[nH]c1/C=C1\C(=O)Nc2ccc([N+](=O)[O-])c(-c3ccccc3)c21` [KK, (Z)-1,3-Dihydro-3-[(3-methoxy-1H-pyrrol-2-yl)methylene]-5-nitro-4-phenyl-2H-indol-2-one] gave an IC50 [1] of under 0.15 µM.

`COc1cc[nH]c1/C=C1\C(=O)Nc2ccc(NC(=O)Cc3cccs3)c(-c3ccccc3)c21` [LL, (Z)-N-[2,3-Dihydro-3-[(3-methoxy-1H-pyrrol-2-yl)methylene]-2-oxo-4-phenyl-1H-indol-5-yl]-2-thiopheneacetamide] showed an IC50 [1] of under 0.15 µM.

`COc1cc[nH]c1/C=C1\C(=O)Nc2cccc(-c3ccc4[nH]ccc4c3)c21` [MM, (Z)-1,3-Dihydro-4-(5-indolyl)-3-[(3-methoxy-1H-pyrrol-2-yl)methylene]-2H-indol-2-one] showed an IC50 [1] of under 0.15 µM.

Work on `COc1cc[nH]c1/C=C1\C(=O)Nc2ccc(N)c(-c3ccc(O)cc3)c21` [NN, (Z)-5-Amino-1,3-dihydro-4-(4-hydroxyphenyl)-3-[(3-methoxy-1H-pyrrol-2-yl)methylene]-2H-indol-2-one] yielded an IC50 [1] of under 0.15 µM.

With `COc1cc[nH]c1/C=C1\C(=O)Nc2ccc(NC(=O)Cc3cccs3)c(-c3ccc(O)cc3)c21` [OO, (Z)-N-[2,3-Dihydro-4-(4-hydroxyphenyl)-3-[(3-methoxy-1H-pyrrol-2-yl)methylene]-2-oxo-1H-indol-5-yl]-2-thiopheneacetamide] the IC50 [1] was under 0.15 µM.

Work on `COc1cc[nH]c1/C=C1\C(=O)Nc2ccc(N)c(-c3ccccc3)c21` [PP, (Z)-5-Amino-1,3-dihydro-3-[(3-methoxy-1H-pyrrol-2-yl)methylene]-4-phenyl-2H-indol-2-one] yielded an IC50 [1] of under 0.15 µM.

For `COc1cc[nH]c1/C=C1\C(=O)Nc2ccc(NC(=O)Cc3cccs3)c(-c3ccc4[nH]ccc4c3)c21` [QQ, (Z)-N-[2,3-dihydro-4-(5-indolyl)-3-[(3-methoxy-1H-pyrrol-2-yl)methylene]-2-oxo-1H-indol-5-yl]-2-thiopheneacetamide], the IC50 [1] was under 0.15 µM.

Work on `COC(=O)c1ccc(-c2c([N+](=O)[O-])ccc3c2/C(=C/c2[nH]ccc2OC)C(=O)N3)cc1` [RR, (Z)-4-[2,3-Dihydro-3-[(3-methoxy-1H-pyrrol-2-yl)methylene]-5-nitro-2oxo-1H-indol-4-yl]-benzoic acid methyl ester] yielded an IC50 [1] of under 0.15 µM.

For `COC(=O)c1ccc(-c2c(N)ccc3c2/C(=C/c2[nH]ccc2OC)C(=O)N3)cc1` [SS, (Z)-4-[5-Amino-2,3-dihydro-3-[(3-methoxy-1H-pyrrol-2-yl)methylene]-2-oxo-1H-indol-4-yl]-benzoic acid methyl ester], the IC50 [1] was under 0.15 µM.

`COc1cc[nH]c1/C=C1\C(=O)Nc2cccc(-c3cccc4[nH]ccc34)c21` [TT, (Z)-1,3-Dihydro-4-(4-indolyl)-3-[(3-methoxy-1H-pyrrol-2-yl)methylene]-2H-indol-2-one] was tested, and the IC50 [1] was under 0.15 µM.

Work on `COc1cc[nH]c1/C=C1\C(=O)Nc2cccc(-c3ccc4cc[nH]c4c3)c21` [UU, (Z)-1,3-Dihydro-4-(6-indolyl)-3-[(3-methoxy-1H-pyrrol-2-yl)methylone]-2H-indol-2-one] yielded an IC50 [1] of under 0.15 µM.

Work on `COc1cc[nH]c1/C=C1\C(=O)Nc2ccc(NC(=O)Cc3cccs3)c(-c3ccc4cc[nH]c4c3)c21` [VV, (Z)-N-[2,3-Dihydro-4-(6-indolyl)-3-[(3-methoxy-1H-pyrrol-2-yl)methylene]-2-oxo-1H-indol-5-yl]-2-thiopheneacetamide] yielded an IC50 [1] of under 0.15 µM.

`COC(=O)c1ccc(-c2c(NC(=O)Cc3cccs3)ccc3c2/C(=C/c2[nH]ccc2OC)C(=O)N3)cc1` [WW, (Z)-4-[2,3-Dihydro-3-[(3-methoxy-1H-pyrrol-2-yl)methylene]-2-oxo-5-[(2-thienylacetyl)amino]-1H-indol-4-yl]-benzoic Acid Methyl Ester] was tested, and the IC50 [2] was 1.35e+06 pM, the IC50 [1] was under 0.15 µM and the IC50 [3] was 7.8e+06 pM.

Work on `COc1cc[nH]c1/C=C1\C(=O)Nc2ccc(NC(=O)Cc3cccs3)c(-c3ccc(C(=O)O)cc3)c21` [XX, (Z)-4-[2,3-Dihydro-3-[(3-methoxy-1H-pyrrol-2-yl)methylene]-2-oxo-5-[(2-thienylacetyl)amino]-1H-indol-4-yl]-benzoic acid] yielded an IC50 [1] of under 0.15 µM.
